Measurements reported in paper PMC11513923, “Discovery of ZLC491 as a Potent, Selective, and Orally Bioavailable CDK12/13 PROTAC Degrader” (Journal of Medicinal Chemistry, 2024).

How the values were obtained:
CDK13 = molecular target: T1, CDK13 (Homo sapiens, UniProt Q14004); assay: CDK13 degradation in MDA-MB-231 cells by immunoblotting; assay type: cell-based; settings: 0.3 μM; for Protein Degradation (%DMSO control, 0.3 μM) CDK13: MDA-MB-231 cells, 15 h, immunoblotting, normalized against α-tubulin; for Degradation rates of CDK13 at 0.3 μM: supplementary CSV;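 for Protein Degradation (%DMSO control, 0.3 μM) CDK13: percent of CDK13 protein degraded relative to DMSO control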
T1 construct: Immunoblotting of CDK12 and CDK13 in MDA-MB-231 cells treated with increasing concentrations of ZLC491 for 15 h; endogenous in cells; host or cells: MDA-MB-231
T1 sequence (Q14004 whole entry): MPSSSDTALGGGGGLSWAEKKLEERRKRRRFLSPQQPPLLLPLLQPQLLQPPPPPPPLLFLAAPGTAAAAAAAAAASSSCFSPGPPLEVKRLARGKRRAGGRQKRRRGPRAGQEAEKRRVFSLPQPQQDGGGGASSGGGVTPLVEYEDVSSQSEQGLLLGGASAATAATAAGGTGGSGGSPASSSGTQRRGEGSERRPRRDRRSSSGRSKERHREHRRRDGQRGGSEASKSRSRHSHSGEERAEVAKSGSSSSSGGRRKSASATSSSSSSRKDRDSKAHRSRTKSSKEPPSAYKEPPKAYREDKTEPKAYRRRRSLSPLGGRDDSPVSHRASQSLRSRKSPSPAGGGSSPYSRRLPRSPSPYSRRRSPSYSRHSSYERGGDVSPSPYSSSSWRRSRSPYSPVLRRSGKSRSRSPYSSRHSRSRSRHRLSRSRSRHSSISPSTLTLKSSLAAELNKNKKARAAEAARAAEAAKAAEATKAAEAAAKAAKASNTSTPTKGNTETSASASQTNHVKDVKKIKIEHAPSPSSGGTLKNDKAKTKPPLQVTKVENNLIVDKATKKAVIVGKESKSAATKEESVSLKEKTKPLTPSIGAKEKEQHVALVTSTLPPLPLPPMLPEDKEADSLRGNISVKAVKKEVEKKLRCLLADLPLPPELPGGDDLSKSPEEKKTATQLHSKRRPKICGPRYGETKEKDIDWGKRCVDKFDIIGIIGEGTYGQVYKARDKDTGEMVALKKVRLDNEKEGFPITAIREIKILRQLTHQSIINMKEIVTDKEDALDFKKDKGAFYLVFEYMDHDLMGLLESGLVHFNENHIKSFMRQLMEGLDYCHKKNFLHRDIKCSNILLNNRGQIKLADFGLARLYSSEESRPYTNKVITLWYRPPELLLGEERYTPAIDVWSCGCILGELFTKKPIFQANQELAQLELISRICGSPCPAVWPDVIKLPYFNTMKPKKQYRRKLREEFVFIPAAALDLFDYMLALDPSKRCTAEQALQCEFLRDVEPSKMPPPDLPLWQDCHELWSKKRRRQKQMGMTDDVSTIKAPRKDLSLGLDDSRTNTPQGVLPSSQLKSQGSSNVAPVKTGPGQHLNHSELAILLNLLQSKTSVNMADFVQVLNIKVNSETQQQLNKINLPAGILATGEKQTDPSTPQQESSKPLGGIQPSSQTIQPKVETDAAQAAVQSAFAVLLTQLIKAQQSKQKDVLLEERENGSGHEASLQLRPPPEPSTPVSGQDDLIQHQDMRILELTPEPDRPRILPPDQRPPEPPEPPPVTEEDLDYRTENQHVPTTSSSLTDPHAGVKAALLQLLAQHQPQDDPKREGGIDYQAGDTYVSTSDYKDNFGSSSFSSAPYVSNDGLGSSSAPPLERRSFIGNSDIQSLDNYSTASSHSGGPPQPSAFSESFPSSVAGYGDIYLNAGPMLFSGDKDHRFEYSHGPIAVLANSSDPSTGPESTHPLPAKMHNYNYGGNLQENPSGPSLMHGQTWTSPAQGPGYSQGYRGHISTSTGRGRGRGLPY
T1 sequence (O75909 whole entry partner): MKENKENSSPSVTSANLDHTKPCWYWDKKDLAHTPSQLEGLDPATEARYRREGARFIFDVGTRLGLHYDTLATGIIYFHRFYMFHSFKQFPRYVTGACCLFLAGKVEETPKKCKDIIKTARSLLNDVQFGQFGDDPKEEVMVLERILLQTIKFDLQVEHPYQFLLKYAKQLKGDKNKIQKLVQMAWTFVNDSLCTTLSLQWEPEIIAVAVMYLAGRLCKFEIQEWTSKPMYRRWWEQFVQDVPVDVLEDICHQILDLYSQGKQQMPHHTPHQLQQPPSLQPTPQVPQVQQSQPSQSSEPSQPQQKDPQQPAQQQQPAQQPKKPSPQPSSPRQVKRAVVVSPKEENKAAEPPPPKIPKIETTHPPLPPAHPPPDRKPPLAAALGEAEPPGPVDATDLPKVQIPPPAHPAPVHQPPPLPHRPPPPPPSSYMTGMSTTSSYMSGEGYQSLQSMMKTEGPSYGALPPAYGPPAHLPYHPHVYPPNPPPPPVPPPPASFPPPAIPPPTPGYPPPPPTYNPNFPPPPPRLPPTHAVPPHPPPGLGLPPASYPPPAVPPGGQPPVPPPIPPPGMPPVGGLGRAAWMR
Procedure: (§1) The degradation efficiency of the new molecules was assessed by immunoblotting after treatment with the compounds at 0.3 μM in MD-MBA-231 cells for 15 h.
(§2) To further characterize the compound, we determined the half-degradation concentration (DC50) values of ZLC491 in MDA-MB-231 cells. […] We also treated MDA-MB-231 cells with 1 μM ZLC491 at various time points.
(§3) (A) Immunoblotting of CDK12 and CDK13 in MDA-MB-231 cells treated with increasing concentrations of ZLC491 for 15 h (left). Percent remaining CDK12 and CDK13 proteins were plotted for DC50 determination (right). Protein levels were quantified using ImageJ and normalized to corresponding α-tubulin, then plotted using Graphpad Prism 8.0. The data were representative of three independent experiments; (B) immunoblotting of CDK12 and CDK13 proteins in MDA-MB-231 cells treated with ZLC491 for various time points; immunoblotting of CDK12 and CDK13 in HCC38 (C) and MDA-MB-436 (D) cells treated with increasing concentrations of ZLC491 for 15 h. α-Tubulin was used as a loading control. TEXT PRINTED IN THE PICTURE: (A) ZLC491: MDA-MB-231: CDK12 DC50 = 0.032μM; MDA-MB-231: CDK13 DC50 = 0.028μM DOUBTS OF THE COPYIST ABOUT THIS PICTURE: ZLC491, CDK12 DC50: 0.032 read from small print, the digits 3 and 2 are uncertain / ZLC491, CDK13 DC50: 0.028 read from small print, the last digit may be 8, 6 or 3
(§4) Generally, the tested cells were washed by ice-cold PBS buffer (Gibco) and lysed with an SDS lysis buffer (62.5 mM Tris, 2% w/v SDS, 10 glycerol, 50 mM DTT, 0.01% w/v bromophenol blue) on ice, after which the protein lysate samples were collected to 1.5 mL microcentrifuge tubes and treated with ultrasonic for 10 s, following with a 100 °C incubation for 10 min and a 4 °C centrifugation of 12000 rpm for 10 min. An equal amount of protein was loaded to 4–8% Bis-Tris gels and underwent an SDS-PAGE electrophoresis at 55V for 30 min and 95V for 90 min. Proteins on gels were then transferred to a polyvinylidene difluoride (PVDF) membrane (Bio-Rad) with a wet electro transfer system (Bio-Rad). The PVDF membrane was cut into bands and incubated in a blocking reagent (5% defatted milk powder dissolved in TBST) at room temperature for 1–2 h. Incubate membrane and primary antibody (at the appropriate dilution and diluent as recommended in the product webpage) at 4 °C for 12–14 h, followed with three times washes by TBST. The washed membranes were incubated in a secondary antibody solution (HRP-linked antirabbit IgG or antimouse IgG (CST), 1:2000 diluted into TBST) at room temperature for 2 h. Membranes were photographed in Amersham Imager 800 system using StarSignal plus regent (GenStar) or Omni-ECL reagent (EpiZyme). Compounds MG132, MLN4924, Bafilomycin A1 and pomalidomide were purchased from MedChemExpress (MCE) LLC.

CDK12 = CDK12 (Homo sapiens, UniProt Q9NYV4); assay: CDK12 degradation in MDA-MB-231 cells by immunoblotting; assay type: cell-based; design: Immunoblotting of CDK12 and CDK13 in MDA-MB-231 cells treated with increasing concentrations of ZLC491 for 15 h; endogenous in cells; host or cells: MDA-MB-231; settings: 0.3 μM; for Protein Degradation (%DMSO control, 0.3 μM) CDK12: MDA-MB-231 cells, 15 h, immunoblotting, normalized against α-tubulin; for Degradation rates of CDK12 at 0.3 μM: supplementary CSV
Chain of CDK12 (Q9NYV4 whole entry): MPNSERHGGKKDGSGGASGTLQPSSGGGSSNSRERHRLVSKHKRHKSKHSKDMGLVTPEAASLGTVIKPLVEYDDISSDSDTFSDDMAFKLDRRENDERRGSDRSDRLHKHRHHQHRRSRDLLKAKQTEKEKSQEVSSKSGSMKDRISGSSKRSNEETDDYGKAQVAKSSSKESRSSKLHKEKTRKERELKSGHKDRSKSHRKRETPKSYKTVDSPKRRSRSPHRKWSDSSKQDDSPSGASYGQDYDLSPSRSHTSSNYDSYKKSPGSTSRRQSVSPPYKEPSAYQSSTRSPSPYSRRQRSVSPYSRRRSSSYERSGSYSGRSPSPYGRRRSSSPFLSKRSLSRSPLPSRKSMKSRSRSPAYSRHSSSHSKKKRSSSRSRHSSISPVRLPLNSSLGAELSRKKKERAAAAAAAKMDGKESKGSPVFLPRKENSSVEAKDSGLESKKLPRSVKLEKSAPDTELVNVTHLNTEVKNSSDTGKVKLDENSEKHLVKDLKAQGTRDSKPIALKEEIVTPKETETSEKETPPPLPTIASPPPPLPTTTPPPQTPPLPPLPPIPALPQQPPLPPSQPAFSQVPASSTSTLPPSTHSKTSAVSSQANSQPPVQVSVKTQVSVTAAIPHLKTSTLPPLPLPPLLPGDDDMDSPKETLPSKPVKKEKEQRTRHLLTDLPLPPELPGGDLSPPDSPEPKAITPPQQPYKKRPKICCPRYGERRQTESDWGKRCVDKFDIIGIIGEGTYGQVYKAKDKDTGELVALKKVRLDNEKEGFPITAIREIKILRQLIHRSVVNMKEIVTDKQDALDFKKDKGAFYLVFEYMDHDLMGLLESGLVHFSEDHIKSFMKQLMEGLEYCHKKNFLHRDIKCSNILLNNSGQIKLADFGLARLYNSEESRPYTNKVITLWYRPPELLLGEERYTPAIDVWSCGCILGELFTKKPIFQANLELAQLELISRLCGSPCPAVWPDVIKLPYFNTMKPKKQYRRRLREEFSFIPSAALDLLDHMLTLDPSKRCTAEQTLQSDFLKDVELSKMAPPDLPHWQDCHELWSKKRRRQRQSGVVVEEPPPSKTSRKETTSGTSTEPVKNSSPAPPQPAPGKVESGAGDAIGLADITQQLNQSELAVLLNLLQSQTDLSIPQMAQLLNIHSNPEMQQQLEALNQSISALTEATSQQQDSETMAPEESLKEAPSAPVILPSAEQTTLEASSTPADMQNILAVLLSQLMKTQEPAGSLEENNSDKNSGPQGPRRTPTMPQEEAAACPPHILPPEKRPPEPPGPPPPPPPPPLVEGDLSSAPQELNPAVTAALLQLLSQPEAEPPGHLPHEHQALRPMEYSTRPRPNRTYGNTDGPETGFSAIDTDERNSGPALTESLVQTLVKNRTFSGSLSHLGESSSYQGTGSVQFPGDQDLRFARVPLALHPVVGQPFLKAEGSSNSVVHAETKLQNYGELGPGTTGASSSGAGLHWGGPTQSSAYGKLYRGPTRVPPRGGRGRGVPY
Chain of CDK12 (O75909 whole entry partner): as the sequence (O75909 whole entry partner) above
Procedure: as §1, §2, §3, §4

Row | SMILES | Protein Degradation (%DMSO control, 0.3 μM) CDK13 (CDK13) [%] | Degradation rates of CDK13 at 0.3 μM (CDK13) [%] | Protein Degradation (%DMSO control, 0.3 μM) CDK12 (CDK12) [%] | Degradation rates of CDK12 at 0.3 μM (CDK12) [%]
1 | N#Cc1ccc(N[C@H]2CC[C@H](N(C(=O)NCc3ccccc3)c3ccc(N4CCN(C(=O)C5CN(c6ccc7c(c6)C(=O)N(C6CCC(=O)NC6=O)C7=O)C5)CC4)cc3)CC2)nc1 (stereo partly drawn) [4a, 3-Benzyl-1-((1r,4r)-4-((5-cyanopyridin-2-yl)amino)cyclohexyl)-1-(4-(4-(1-(2-(2,6-dioxopiperidin-3-yl)-1,3-dioxoisoindolin-5-yl)azetidine-3-carbonyl)piperazin-1-yl)phenyl)urea] | 38 | 38 | 35 | 35
2 | N#Cc1ccc(N[C@H]2CC[C@H](N(C(=O)NCc3ccccc3)c3ccc(N4CCN(C(=O)C5CCN(c6ccc7c(c6)C(=O)N(C6CCC(=O)NC6=O)C7=O)C5)CC4)cc3)CC2)nc1 (stereo partly drawn) [4b, 3-Benzyl-1-((1r,4r)-4-((5-cyanopyridin-2-yl)amino)cyclohexyl)-1-(4-(4-(1-(2-(2,6-dioxopiperidin-3-yl)-1,3-dioxoisoindolin-5-yl)pyrrolidine-3-carbonyl)piperazin-1-yl)phenyl)urea] | 65 | 65 | 61 | 61
3 | N#Cc1ccc(N[C@H]2CC[C@H](N(C(=O)NCc3ccccc3)c3ccc(N4CCN(C(=O)C5CCN(c6ccc7c(c6)C(=O)N(C6CCC(=O)NC6=O)C7=O)CC5)CC4)cc3)CC2)nc1 (stereo partly drawn) [4c, 3-Benzyl-1-((1r,4r)-4-((5-cyanopyridin-2-yl)amino)cyclohexyl)-1-(4-(4-(1-(2-(2,6-dioxopiperidin-3-yl)-1,3-dioxoisoindolin-5-yl)piperidine-4-carbonyl)piperazin-1-yl)phenyl)urea] | 51 | 51 | 38 | 38
4 | N#Cc1ccc(N[C@H]2CC[C@H](N(C(=O)NCc3ccccc3)c3ccc(N4CCN(CC5CN(c6ccc7c(c6)C(=O)N(C6CCC(=O)NC6=O)C7=O)C5)CC4)cc3)CC2)nc1 (stereo partly drawn) [4d, 3-Benzyl-1-((1r,4r)-4-((5-cyanopyridin-2-yl)amino)cyclohexyl)-1-(4-(4-((1-(2-(2,6-dioxopiperidin-3-yl)-1,3-dioxoisoindolin-5-yl)azetidin-3-yl)methyl)piperazin-1-yl)phenyl)urea] | 71 | 71 | 60 | 60
5 | N#Cc1ccc(N[C@H]2CC[C@H](N(C(=O)NCc3ccccc3)c3ccc(N4CCN(C[C@@H]5CCN(c6ccc7c(c6)C(=O)N(C6CCC(=O)NC6=O)C7=O)C5)CC4)cc3)CC2)nc1 (stereo partly drawn) [4e, 3-Benzyl-1-((1r,4s)-4-((5-cyanopyridin-2-yl)amino)cyclohexyl)-1-(4-(4-(((3S)-1-(2-(2,6-dioxopiperidin-3-yl)-1,3-dioxoisoindolin-5-yl)pyrrolidin-3-yl)methyl)piperazin-1-yl)phenyl)urea] | 70 | 70 | 50 | 50
6 | N#Cc1ccc(N[C@H]2CC[C@H](N(C(=O)NCc3ccccc3)c3ccc(N4CCN(C[C@H]5CCN(c6ccc7c(c6)C(=O)N(C6CCC(=O)NC6=O)C7=O)C5)CC4)cc3)CC2)nc1 (stereo partly drawn) [4f, 3-Benzyl-1-((1r,4r)-4-((5-cyanopyridin-2-yl)amino)cyclohexyl)-1-(4-(4-(((3R)-1-(2-(2,6-dioxopiperidin-3-yl)-1,3-dioxoisoindolin-5-yl)pyrrolidin-3-yl)methyl)piperazin-1-yl)phenyl)urea] | 64 | 64 | 59 | 59
7 | N#Cc1ccc(N[C@H]2CC[C@H](N(C(=O)NCc3ccccc3)c3ccc(N4CCN(CC5CCN(c6ccc7c(c6)C(=O)N(C6CCC(=O)NC6=O)C7=O)CC5)CC4)cc3)CC2)nc1 (stereo partly drawn) [4g, 3-Benzyl-1-((1r,4r)-4-((5-cyanopyridin-2-yl)amino)cyclohexyl)-1-(4-(4-((1-(2-(2,6-dioxopiperidin-3-yl)-1,3-dioxoisoindolin-5-yl)piperidin-4-yl)methyl)piperazin-1-yl)phenyl)urea] | 84 | 84 | 74 | 74
8 | N#Cc1ccc(N[C@H]2CC[C@H](N(C(=O)NCc3ccccc3)c3ccc(N4CCN(CC5CCN(c6cc7c(cc6F)C(=O)N(C6CCC(=O)NC6=O)C7=O)CC5)CC4)cc3)CC2)nc1 (stereo partly drawn) [4g-F, 3-Benzyl-1-((1r,4r)-4-((5-cyanopyridin-2-yl)amino)cyclohexyl)-1-(4-(4-((1-(2-(2,6-dioxopiperidin-3-yl)-6-fluoro-1,3-dioxoisoindolin-5-yl)piperidin-4-yl)methyl)piperazin-1-yl)phenyl)urea] | 57 | 57 | 53 | 53
9 | N#Cc1ccc(N[C@H]2CC[C@H](N(C(=O)NCc3ccccc3)c3ccc(N4CC(CN5CCN(c6ccc7c(c6)C(=O)N(C6CCC(=O)NC6=O)C7=O)CC5)C4)cc3)CC2)nc1 (stereo partly drawn) [4h, 3-Benzyl-1-((1r,4r)-4-((5-cyanopyridin-2-yl)amino)cyclohexyl)-1-(4-(3-((4-(2-(2,6-dioxopiperidin-3-yl)-1,3-dioxoisoindolin-5-yl)piperazin-1-yl)methyl)azetidin-1-yl)phenyl)urea] | 61 | 61 | 37 | 37
10 | N#Cc1ccc(N[C@H]2CC[C@H](N(C(=O)NCc3ccccc3)c3ccc(N4CCC(CN5CCN(c6ccc7c(c6)C(=O)N(C6CCC(=O)NC6=O)C7=O)CC5)C4)cc3)CC2)nc1 (stereo partly drawn) [4i, 3-Benzyl-1-((1r,4r)-4-((5-cyanopyridin-2-yl)amino)cyclohexyl)-1-(4-(3-((4-(2-(2,6-dioxopiperidin-3-yl)-1,3-dioxoisoindolin-5-yl)piperazin-1-yl)methyl)pyrrolidin-1-yl)phenyl)urea] | 16 | 16 | 28 | 28
11 | N#Cc1ccc(N[C@H]2CC[C@H](N(C(=O)NCc3ccccc3)c3ccc(N4CCC(CN5CCN(c6ccc7c(c6)C(=O)N(C6CCC(=O)NC6=O)C7=O)CC5)CC4)cc3)CC2)nc1 (stereo partly drawn) [4j, 3-Benzyl-1-((1r,4r)-4-((5-cyanopyridin-2-yl)amino)cyclohexyl)-1-(4-(4-((4-(2-(2,6-dioxopiperidin-3-yl)-1,3-dioxoisoindolin-5-yl)piperazin-1-yl)methyl)piperidin-1-yl)phenyl)urea] | 71 | 71 | 49 | 49
12 | N#Cc1ccc(N[C@H]2CC[C@H](N(C(=O)NCc3ccccc3)c3ccc(N4CCN(C5CN(c6ccc7c(c6)C(=O)N(C6CCC(=O)NC6=O)C7=O)C5)CC4)cc3)CC2)nc1 (stereo partly drawn) [4k, 3-Benzyl-1-((1r,4r)-4-((5-cyanopyridin-2-yl)amino)cyclohexyl)-1-(4-(4-(1-(2-(2,6-dioxopiperidin-3-yl)-1,3-dioxoisoindolin-5-yl)azetidin-3-yl)piperazin-1-yl)phenyl)urea] | 76 | 76 | 62 | 62
